We go through 15 molecules from patent publication US11028087B2, “2,6-disubstituted-9-cyclopentyl-9H-purines, use thereof as medicaments, and pharmaceutical compositions” (UNIVERZITA PALACKEHO V OLOMOUCI, priority 2017, dated 2021).

Assay [1] has as its target T1, CDK2/Cyclin E (Homo sapiens, UniProt P24941).
T1 construct: made in house; host or cells: Sf9 insect cells, baculoviral infection
The assay is described as follows: Kinase inhibition assay with [γ-33P]ATP. The class given is biochemical. The following applies: histone H1, 15 μM ATP; read-out: IC50 values (μM) CDK2. As for the experimental part: (§1) CDK1/Cyclin B and CDK2/Cyclin E kinases were produced in Sf9 insect cells via baculoviral infection and purified on a NiNTA column (Qiagen). CDK5/p35 and CDK7Cyclin H/MAT1, FLT3 WT, FLT3-ITD and FLT3 D835 were purchased from ProQinase GmbH. The kinase reactions were assayed with 1 mg/mL histone H1 (for CDK1, CDK2 and CDK5), (YSPTSPS)2KK peptide (for CDK7) or AGLT substrate (for FLT3) in the presence of 15/15/0.15/1.5/1 μM ATP (for CDK1/CDK2/CDK5/CDK7/FLT3), 0.05 μCi [γ-^33P]ATP and of the test compound in a final volume of 10 μL, all in a reaction buffer (60 mM HEPES-NaOH, pH 7.5, 3 mM MgCl2, 3 mM MnCl2, 3 μM Na-orthovanadate, 1.2 mM DTT, 2.5 μg/50 μl PEG20,000). The reactions were stopped by adding 5 μL of 3% aq H3PO4. Aliquots were spotted onto P-81 phosphocellulose (Whatman), washed 3× with 0.5% aq H3PO4 and finally air-dried.

Assay [2] deals with MV4-11 (acute myeloid leukemia, FLT3-ITD positive). As to the kind of experiment: Calcein AM cytotoxicity assay. The following applies: Homo sapiens, 72 h; MV4-11; Calcein AM, three days after drug addition; read-out: EC50 values (μM) MV4-11. Type of assay: cell-based. From the text:
(§2) Cytotoxicity of the compounds is the major property determining their anticancer effect in vivo. One of the parameters used, as the basis for cytotoxicity assays, is the integrity of cytoplasmic membrane of viable cells. For example, a microtiter assay, which uses acetomethoxy derivate of calcein (Calcein AM), is widely used for evaluation of cell proliferation and cytotoxicity. This assay is used in drug screening programs and in chemosensitivity testing. Intracellular esterases of viable cells convert calcein AM to green-fluorescent calcein of which signal corresponds to the number of viable cells in the culture.
(§3) We have been using the following cell lines: MV4-11 (acute myeloid leukemia, FLT3-ITD positive), MOLM-13 (acute myeloid leukemia, FLT3-ITD positive), THP-1 (acute myeloid leukemia, wt FLT3), U937 (monocytic leukemia, wt FLT3), EOL-1 (eosinophilic leukaemia, carrying the fusion FIP1L1-PDGFRA), H1703 (non-small cell lung carcinoma, PDGFRA amplification). […] K562 and MCF-7 cell lines were maintained in DMEM supplemented with 10% fetal bovine serum, penicilin (100 U/ml) and streptomycin (100 μg/ml). All cell lines were cultivated at 37° C. in 5% CO2. For cytotoxicity assays, cells were seeded in appropriate densities into 96 well plates and the next day tested compounds were added at various concentrations in triplicates. Three days after drug addition, Calcein AM solution (final concentration 1 μg/ml; Thermo Scientific, USA) was added into each well and incubated for 1 h.

The subject of assay [3] is EOL-1 (eosinophilic leukaemia, carrying the fusion FIP1L1-PDGFRA). The assay is described as follows: Calcein AM cytotoxicity assay. Type of assay: cell-based. The note with it: Homo sapiens, EOL1, 72 h; EOL-1; Calcein AM, three days; read-out: EC50 values (μM) EOL-1.
Text: as §2, §3

Assay [4] has as its system Kasumi-1 (acute myeloid leukemia, KIT mutation Asn822Lys). As to the kind of experiment: Calcein AM cytotoxicity assay. The class given is cell-based. The note with it: Homo sapiens, 72 h; Kasumi-1; Calcein AM, three days; read-out: EC50 values (μM) Kasumi-1.
Text: as §2
We have been using the following cell lines: MV4-11 (acute myeloid leukemia, FLT3-ITD positive), MOLM-13 (acute myeloid leukemia, FLT3-ITD positive), THP-1 (acute myeloid leukemia, wt FLT3), U937 (monocytic leukemia, wt FLT3), EOL-1 (eosinophilic leukaemia, carrying the fusion FIP1L1-PDGFRA), H1703 (non-small cell lung carcinoma, PDGFRA amplification). They were maintained in RPMI-1640 supplemented with 10% fetal bovine serum, penicillin (100 U/ml) and streptomycin (100 μg/ml). Kasumi-1 (acute myeloid leukemia, KIT mutation Asn822Lys) cells were cultivated in RPMI-1640 supplemented with 15% fetal bovine serum, penicillin (100 U/ml) and streptomycin (100 μg/ml). K562 and MCF-7 cell lines were maintained in DMEM supplemented with 10% fetal bovine serum, penicilin (100 U/ml) and streptomycin (100 μg/ml). All cell lines were cultivated at 37° C. in 5% CO2. For cytotoxicity assays, cells were seeded in appropriate densities into 96 well plates and the next day tested compounds were added at various concentrations in triplicates. Three days after drug addition, Calcein AM solution (final concentration 1 μg/ml; Thermo Scientific, USA) was added into each well and incubated for 1 h. After this incubation period, fluorescence of the live cells was measured at 485 nm/538 nm (ex/em) with a Fluoroskan Ascent microplate reader (Labsystems).

Assay [5] relates to MCF-7. The assay is described as follows: Calcein AM cytotoxicity assay. The following applies: Homo sapiens, MCF7, 72 h; MCF-7; Calcein AM, three days; read-out: EC50 values (μM) MCF-7. The class given is cell-based.
Text: as §2, §3

The test system of assay [6] is K562. The assay is described as follows: Calcein AM cytotoxicity assay. The class given is cell-based. The note with it: Homo sapiens, 72 h; K562; Calcein AM, three days; read-out: EC50 values (μM) K562.
Text: as §2, §3

Assay [7] relates to THP-1 (acute myeloid leukemia, wt FLT3). As to the kind of experiment: Calcein AM cytotoxicity assay. The following applies: Homo sapiens, 72 h; THP-1; Calcein AM, three days; read-out: EC50 values (μM) THP-1. The class given is cell-based.
Text: as §2, §3

The subject of assay [8] is U937 (monocytic leukemia, wt FLT3). As to the kind of experiment: Calcein AM cytotoxicity assay. The class given is cell-based. The following applies: Homo sapiens, U-937, 72 h; U937; Calcein AM, three days; read-out: EC50 values (μM) U937.
Text: as §2, §3

Assay [9] relates to MOLM-13 (acute myeloid leukemia, FLT3-ITD positive). The assay is described as follows: Calcein AM cytotoxicity assay. The note with it: Homo sapiens, 72 h; MOLM-13; Calcein AM, three days; read-out: EC50 values (μM) MOLM-13. Type of assay: cell-based.
Text: as §2, §3

Assay [10] addresses T2, FLT3 WT (Homo sapiens, UniProt P36888).
T2 construct: purchased ProQinase GmbH
T2 sequence (P36888 27-993): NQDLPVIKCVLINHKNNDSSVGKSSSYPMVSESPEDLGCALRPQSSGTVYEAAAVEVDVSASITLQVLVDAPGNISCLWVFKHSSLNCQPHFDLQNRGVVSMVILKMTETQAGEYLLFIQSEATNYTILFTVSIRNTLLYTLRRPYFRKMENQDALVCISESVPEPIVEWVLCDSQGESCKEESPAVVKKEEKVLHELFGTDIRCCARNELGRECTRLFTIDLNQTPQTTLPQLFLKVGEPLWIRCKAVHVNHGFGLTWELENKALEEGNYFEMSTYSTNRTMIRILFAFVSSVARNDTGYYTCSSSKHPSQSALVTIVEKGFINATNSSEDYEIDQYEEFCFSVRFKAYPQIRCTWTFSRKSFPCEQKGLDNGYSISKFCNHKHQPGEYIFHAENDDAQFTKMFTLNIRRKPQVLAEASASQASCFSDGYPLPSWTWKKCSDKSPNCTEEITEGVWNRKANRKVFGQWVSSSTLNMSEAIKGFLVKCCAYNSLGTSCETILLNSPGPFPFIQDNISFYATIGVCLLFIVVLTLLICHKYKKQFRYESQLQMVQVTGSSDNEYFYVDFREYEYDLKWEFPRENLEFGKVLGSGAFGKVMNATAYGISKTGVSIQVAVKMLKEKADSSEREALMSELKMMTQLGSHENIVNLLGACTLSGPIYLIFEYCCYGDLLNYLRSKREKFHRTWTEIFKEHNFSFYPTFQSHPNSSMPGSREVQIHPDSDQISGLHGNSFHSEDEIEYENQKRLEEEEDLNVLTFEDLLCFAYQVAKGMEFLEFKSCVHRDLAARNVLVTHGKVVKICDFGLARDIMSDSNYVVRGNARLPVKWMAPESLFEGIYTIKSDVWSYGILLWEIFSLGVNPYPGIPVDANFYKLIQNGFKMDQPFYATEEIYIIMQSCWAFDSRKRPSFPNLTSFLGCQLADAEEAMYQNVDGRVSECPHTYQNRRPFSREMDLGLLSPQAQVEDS
The assay is described as follows: Kinase inhibition assay with [γ-33P]ATP. The note with it: AGLT substrate, 1 μM ATP. Type of assay: biochemical. As for the experimental part:
as §1

As a reminder, the IC50 is the concentration needed to halve the response being measured. As a reminder, the EC50 is the concentration needed to bring the measured effect to its halfway point. Consider `c1cc(N2CCOCC2)ncc1Nc1nc(N2CCOCC2)nc2c1ncn2C1CCCC1` [Compound 46], for which, in assay [1], the IC50 came to 0.951 µM. Moreover, the EC50 in assay [2] is 0.02 µM; in assay [3], 0.377 µM.
For `CN1CCN(c2nc(Nc3ccc(N4CCNCC4)nc3)c3ncn(C4CCCC4)c3n2)CC1` [Compound 58], the EC50 in [4] was 0.492 µM; in assay [5], 0.44 µM; in [6], 0.695 µM; in assay [2], 0.017 µM; in [7], 1.13 µM; in assay [8] it was 0.794 µM. In addition, the EC50 was 0.017 µM in [9] and 0.056 µM in assay [3].
As to `CCN1CCN(C(=O)c2ccc(Nc3nc(N4CCN(C)CC4)nc4c3ncn4C3CCCC3)cn2)CC1` [Compound 60], the results for the IC50 in assay [1] and in [10] were 0.028 µM and 0.021 µM, respectively.
With `NC(=O)CCNc1nc(Nc2ccc(C(=O)N3CCOCC3)nc2)c2ncn(C3CCCC3)c2n1` [Compound 149], the EC50 in assay [4] was 1.01 µM; in assay [5], 0.688 µM; in assay [6], 1.17 µM; in assay [2], 0.007 µM.
With `CCN1CCN(C(=O)c2ccc(Nc3nc(NCCCC(N)=O)nc4c3ncn4C3CCCC3)cn2)CC1` [Compound 155], the IC50 in assay [1] was determined as 2.6 µM. Moreover, the EC50 in assay [5] is 4.71 µM; in assay [6] it was 5.17 µM; in assay [2], 0.164 µM.
For `NC(=O)CCCCNc1nc(Nc2ccc(N3CC4(CNC4)C3)cc2)c2ncn(C3CCCC3)c2n1` [Compound 156], in that order: 0.006 µM, 0.697 µM, 0.84 µM and 0.001 µM.
Take `CN(C)CCCNc1nc(Nc2ccc(N3CCN(C)CC3)cc2)c2ncn(C3CCCC3)c2n1` [Compound 174]: the IC50 in [1] was 16.4 µM.
Turning to `CN(C)CCCCNc1nc(Nc2ccc(C(=O)N3CCOCC3)cc2)c2ncn(C3CCCC3)c2n1` [Compound 182], the EC50 was 1.68 µM in [4]; 1.59 µM in assay [5]; 4.21 µM in assay [6]; 0.002 µM in assay [2]; 1.5 µM in assay [7]; 0.631 µM in [8]. Also, the EC50 is 0.017 µM in assay [9] and 0.04 µM in assay [3]. The figures for the IC50 in assay [1] and in [10] were 0.005 µM and 0.013 µM, respectively.
Regarding `CN(C)CCCCNc1nc(Nc2ccc(N3CCOCC3)nc2)c2ncn(C3CCCC3)c2n1` [Compound 183], the EC50 in [4] is 0.183 µM; in assay [5] it was 0.665 µM; in assay [6] it was 0.98 µM; in assay [2], 0.0005 µM; in assay [7], 0.36 µM; in [8], 0.4 µM. Also, the EC50 in assay [9] was 0.005 µM; in assay [3], 0.014 µM.
As for `CN(C)CCCCNc1nc(Nc2ccc(C(=O)N3CCN(C)CC3)nc2)c2ncn(C3CCCC3)c2n1` [Compound 185], the IC50 in [1] is 0.003 µM; in assay [10] it was 0.02 µM.
Regarding `CN1CC2(C1)CN(Cc1ccc(Nc3nc(NCC(O)CN)nc4c3ncn4C3CCCC3)cc1)C2` (stereo not drawn) [Compound 199], the EC50 in [4] was 0.227 µM; in assay [5] it was 0.67 µM; in [6], 1.36 µM; in [2], 0.011 µM; in [7], 0.925 µM; in assay [8], 1 µM. Further, in assay [9], the EC50 was 0.043 µM. Besides, the results for the IC50 in assay [1] and in assay [10] were 0.005 µM and 0.013 µM, respectively.
For `NC1CCC(Nc2nc(Nc3ccc(N4CCOCC4)nc3)c3ncn(C4CCCC4)c3n2)CC1` (stereo not drawn) [Compound 269], in assay [1], the IC50 turned out to be 0.008 µM. Moreover, the EC50 in [5] is 0.96 µM; in assay [6], 1.35 µM; in assay [2], 0.004 µM; in assay [8], 1.49 µM; in assay [3] it was 0.01 µM.
Take `OCCNc1nc(Nc2ccc(CN3CCOCC3)cc2)c2ncn(C3CCCC3)c2n1` [Compound 274]: the IC50 in assay [1] worked out at 1.17 µM. The EC50 in [2] was 0.074 µM; in assay [3] it was 0.503 µM.
The corresponding values for `OCCCNc1nc(Nc2ccc(CN3CCOCC3)cc2)c2ncn(C3CCCC3)c2n1` [Compound 275] are 3.01 µM, 0.066 µM and 0.73 µM.
Turning to `OCCCCNc1nc(Nc2ccc(CN3CCOCC3)cc2)c2ncn(C3CCCC3)c2n1` [Compound 276], in assay [1], the IC50 amounted to 1.8 µM. The EC50 in assay [2] was 0.029 µM.
